Measured values: article PMC6696315, “Inhibiting Acetylcholinesterase to Activate Pleiotropic Prodrugs with Therapeutic Interest in Alzheimer’s Disease” (Molecules, 2019)
Values joined by “and” are separate entries in the source; they are usually repeats but may differ in a detail not shown here. Identical values can stand only once. “Also recorded” adds a separate entry of the source. Counter-ions that a name gives are not always drawn.

Columns and labels:
mice = test: CNS-activity and acute toxicity test; settings: mice, IP
Experimental: Animals. Adult male NMRI mice (3 months old, weighing 35–40 g) from Janvier labs (Le Genest-Saint-Isle, France) were used to perform experiments. Mice were housed by ten in standard polycarbonate cages in standard controlled conditions (22 ± 2 °C, 55 ± 10% humidity) with a reversed 12 h light/dark cycle (light on at 7 pm). Food and water were available ad libitum in the home cage. All experiments were conducted (between 9 am and 3 pm) during the active–dark phase of the cycle and were in agreement with the European Directives and French law on animal experimentation (personal authorization n° 14–17 for MB and 14–60 for TF).
CNS-activity and acute toxicity test. Behavioral and neurological changes induced by graded doses (1, 10, 100 mg/kg) of the tested derivatives were evaluated in mice, in groups of four, by a standardized observation technique at different times (30 min, 3 and 24 h) after intraperitoneal administration. […] The approximate DL50 of the compounds were also calculated through the quantification of mortality after 24 h. Amphetamine (2 mg/kg) and chlorpromazine (10 mg/kg) were used as the stimulant and depressive references, respectively.

human 5-HT4R [1] = target: T1, human 5-HT4R (Homo sapiens, UniProt Q13639); test: 5-HT4R radioligand displacement assay ([3H]-GR113808); assay type: binding; settings: mean ± SEM of at least three experiments
T1 construct: purchased Eurofins HTS110M
T1 sequence (Q13639 whole entry): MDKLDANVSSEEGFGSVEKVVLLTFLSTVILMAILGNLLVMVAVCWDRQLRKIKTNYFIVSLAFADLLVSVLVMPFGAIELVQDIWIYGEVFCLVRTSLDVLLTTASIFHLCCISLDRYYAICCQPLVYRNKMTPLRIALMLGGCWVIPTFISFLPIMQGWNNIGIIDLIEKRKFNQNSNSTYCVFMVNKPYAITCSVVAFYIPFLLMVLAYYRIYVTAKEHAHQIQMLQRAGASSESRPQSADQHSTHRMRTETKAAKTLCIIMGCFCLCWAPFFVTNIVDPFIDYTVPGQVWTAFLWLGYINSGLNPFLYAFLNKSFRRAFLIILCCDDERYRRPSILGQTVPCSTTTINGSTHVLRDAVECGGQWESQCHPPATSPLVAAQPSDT

AChE [2] = target: T2, AChE (Homo sapiens, UniProt P22303); test: AChE inhibition, Ellman assay; assay type: biochemical; design: AChE from human erythrocytes; purchased Sigma Aldrich; host or cells: human erythrocytes (natural source); settings: for inhibition at 1 µM: read-out: (h)AChE % Inhibition at 10^−6 M; for AChE inhibitory activity: result in words
T2 sequence (P22303 32-617 isoform P22303-2 limits assumed): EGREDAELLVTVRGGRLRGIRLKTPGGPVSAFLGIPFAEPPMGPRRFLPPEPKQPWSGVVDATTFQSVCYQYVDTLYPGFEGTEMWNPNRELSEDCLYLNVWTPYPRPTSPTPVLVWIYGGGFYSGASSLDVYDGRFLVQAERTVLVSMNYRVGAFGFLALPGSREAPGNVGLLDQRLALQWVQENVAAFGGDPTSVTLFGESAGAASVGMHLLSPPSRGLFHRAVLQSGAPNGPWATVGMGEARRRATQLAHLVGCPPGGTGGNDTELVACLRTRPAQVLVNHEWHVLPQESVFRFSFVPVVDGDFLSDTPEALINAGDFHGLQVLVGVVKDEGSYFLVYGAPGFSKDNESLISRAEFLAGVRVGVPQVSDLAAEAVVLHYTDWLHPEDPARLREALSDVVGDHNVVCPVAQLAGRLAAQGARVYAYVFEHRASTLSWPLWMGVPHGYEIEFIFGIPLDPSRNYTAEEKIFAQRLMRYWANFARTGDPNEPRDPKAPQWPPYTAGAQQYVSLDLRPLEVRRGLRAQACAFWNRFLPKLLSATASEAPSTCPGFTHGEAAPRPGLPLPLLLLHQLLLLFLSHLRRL
Experimental: All the synthesized phenolic derivatives and their carbamates were evaluated as potential inhibitors of human AChE, using the Ellman assay, as well as potential ligands for human 5-HT4R using a radioligand displacement assay.
The inhibitory capacity of compounds on AChE biological activity was evaluated through the use of the spectrometric method of Ellman. Acetylthiocholine iodide and 5,5-dithiobis-(2-nitrobenzoic) acid (DTNB) were purchased from Sigma Aldrich. AChE from human erythrocytes (buffered aqueous solution, ≥500 units/mg protein (BCA), Sigma Aldrich, St. Louis, MO, USA) was diluted in 20 mM HEPES buffer pH 8, 0.1% Triton X-100 such as to have enzyme solution with 0.25 unit/mL enzyme activity. In the procedure, 100 μL of 0.3 mM DTNB dissolved in a phosphate buffer with pH 7.4 were added into the 96-well plates followed by 50 μL of the test compound solution and 50 μL of enzyme (0.05 U final). After 5 min of preincubation at 25 °C, the reaction was then initiated by the injection of 50 μL of 10 mM acetylthiocholine iodide solution. […] Assays were performed with a blank containing all components except acetylthiocholine, in order to account for non-enzymatic reactions. The reaction slopes were compared and the percent inhibition due to the presence of test compounds was calculated by the following expression: 100 − (vi/v0 × 100), where vi is the rate calculated in the presence of inhibitor and v0 is the enzyme activity.

human 5-HT4R [3] = target: T1, human 5-HT4R; test: 5-HT4R radioligand displacement assay ([3H]-GR113808); assay type: binding; settings: for 5-HT4R affinity: result in words
Experimental: All the synthesized phenolic derivatives and their carbamates were evaluated as potential inhibitors of human AChE, using the Ellman assay, as well as potential ligands for human 5-HT4R using a radioligand displacement assay. […].
For competition studies, 2.5 µg of proteins (5-HT4(b) membrane preparations, HTS110M, Eurofins. Eurofins’ 5-HT4(b) membrane preparations are crude membrane preparations made from their proprietary stable recombinant cell lines to ensure high-level of GPCR surface expression.) were incubated in duplicate at 25 °C for 60 min in the absence or the presence of 10^−6 or 10^−8M of each drug (9 was used as a reference standard) and 0.2 nM [^3H]-GR113808 (NET 1152, Perkin Elmer) in 25 mM Tris buffer (pH 7.4, 25 °C). At the end of the incubation, homogenates were filtered through Whatman GF/C filters (Alpha Biotech) pre-soaked with 0.5% polyethylenimine using a Brandel cell harvester. Filters were subsequently washed three times with 1 mL of ice-cold 25 mM Tris buffer (pH 7.4, 4 °C). Non-specific binding was evaluated in parallel in the presence of 30 µM serotonin. For some of these compounds, affinity constants were calculated from five-point inhibition curves using the GraphPad Prism 6 software and expressed as Ki ± SD.

(h)5-HT4(a) receptors = target: T3, (h)5-HT4(a) receptors (Homo sapiens, UniProt Q13639); test: cAMP production in COS-7 cells transfected with 5-HT4R; assay type: cell-based
T3 construct: HA; expressed in transfected cells; host or cells: COS-7
T3 sequence (Q13639 1-387 isoform Q13639-2): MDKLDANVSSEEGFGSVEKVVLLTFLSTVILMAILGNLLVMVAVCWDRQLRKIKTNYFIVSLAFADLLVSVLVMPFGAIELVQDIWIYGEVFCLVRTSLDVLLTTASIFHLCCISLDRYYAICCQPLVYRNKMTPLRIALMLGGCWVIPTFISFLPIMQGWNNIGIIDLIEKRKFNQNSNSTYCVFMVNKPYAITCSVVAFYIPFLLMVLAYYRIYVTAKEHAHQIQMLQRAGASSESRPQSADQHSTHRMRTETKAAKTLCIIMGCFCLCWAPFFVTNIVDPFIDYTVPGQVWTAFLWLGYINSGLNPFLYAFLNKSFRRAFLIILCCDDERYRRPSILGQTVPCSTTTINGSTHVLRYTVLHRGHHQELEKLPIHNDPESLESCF
Experimental: COS-7 cells were grown in Dulbecco’s modified Eagle medium (DMEM) supplemented with 10% dialyzed fetal calf serum (dFCS) and antibiotics. Cells were transiently transfected by electroporation with plasmids encoding HA-tagged 5-HT4R (100 ng/10^6 cells), then seeded in 96-well plates (16,000 cells/well). […] After 10 min, cells were then lysed by the addition of the same volume of Triton-X100 (0.1%). Quantification of cAMP production was performed by HTRF® using the cAMP Dynamic kit (Cisbio Bioassays, Codolet, France) according to the manufacturer’s instructions.

AChE [4] = target: T2, AChE; test: Kinetic study for AChE inhibition (Lineweaver-Burk plots); assay type: biochemical
Experimental: To try to clarify the mechanism of action of 19 and 20, reciprocal plots of 1/velocity vs. 1/[substrate] were constructed at different concentrations of the substrate acetylthiocholine iodide (0.01–1 mM) by using the spectrometric method by Ellman et al.. Four concentrations of 19 were selected for the studies: 10^−6, 10^−7, 10^−8 and 10^−9 M for the kinetic analysis of AChE inhibition. Four concentrations of 20 were selected for the studies: 10^−5, 10^−6, 10^−7 and 10^−8 M for the kinetic analysis of AChE inhibition. The plots were assessed by a weighted least squares analysis that assumed the variance of velocity (ν) to be a constant percentage of ν for the entire dataset. Slopes of these reciprocal plots were then plotted against the concentration of 19 and 20 in a weighted analysis.

rodents [5] = settings: various tests; cited from earlier work
rodents [6] = settings: cited from earlier work
[7] = (h)AChE IC50, Ellman assay, mean ± SEM of at least two experiments

For `C[C@H](N)Cc1ccccc1` [Amphetamine, (+)-α-Methylphenethylamine hemisulfate, reference compound], the “Symptoms (Subtoxic Doses)” value (mice; 2 mg/kg, stimulant reference) was “Hyperactivity, exophtalmy, irritability”.
For `CN(C)CCCN1c2ccccc2Sc2ccc(Cl)cc21` [Chlorpromazine, chlorpromazine hydrochloride, reference compound], the “Symptoms (Subtoxic Doses)” value (mice; 10 mg/kg, depressive reference) was “Hypoactivity, ataxia, sleep”.
For `COc1cc(N)c(Cl)cc1C(=O)CCC1CCN(Cc2cccc(O)c2)CC1` [Compound 4, 1-(4-Amino-5-chloro-2-methoxyphenyl)-3-[1-[(3-hydroxyphenyl)methyl]-4-piperidyl]propan-1-one], the Ki (human 5-HT4R [1]) was 5.1 ± 1.1 nM and the IC50 (AChE [2]; [7]) was 148 nM and 149 nM.
For `COc1cc(N)c(Cl)cc1C(=O)OCC1CCN(Cc2cccc(O)c2)CC1` [Compound 5, [1-[(3-Hydroxyphenyl)methyl]-4-piperidyl]methyl 4-amino-5-chloro-2-methoxybenzoate], the Ki (human 5-HT4R [1]) was 0.6 ± 0.4 nM, the inhibition at 1 µM (AChE [2]) was 11% and the AChE inhibitory activity (AChE [2]) was “devoid of any AChE inhibitory activities; also recorded: absent”.
With `COc1cc(N)c(Cl)cc1C(=O)NCC1CCN(Cc2cccc(O)c2)CC1` [Compound 6, 4-Amino-5-chloro-N-[[1-[(3-hydroxyphenyl)methyl]-4-piperidyl]methyl]-2-methoxybenzamide] the Ki (human 5-HT4R [1]) was 5.8 ± 1.2 nM, the inhibition at 1 µM (AChE [2]) was 4% and the AChE inhibitory activity (AChE [2]) was “devoid of any AChE inhibitory activities; also recorded: absent”.
With `CCN(C)C(=O)Oc1cccc(CN2CCC(CCC(=O)c3cc(Cl)c(N)cc3OC)CC2)c1` [Compound 7, [3-[[4-[3-(4-Amino-5-chloro-2-methoxyphenyl)-3-oxopropyl]-1-piperidyl]methyl]phenyl] N-ethyl-N-methyl-carbamate] the “(h)5-HT4R % Inhibition at 10^−8 M” value (human 5-HT4R [3]; 10^−8 M) was 3%, the 5-HT4R affinity (human 5-HT4R [3]) was “devoid of any activity towards 5-HT4R” and the IC50 (AChE [2]; [7]) was 4150 ± 794 nM. It also gave an IC50 (AChE [2]; AChE IC50, value in text) of 4150 nM.
With `CCN(C)C(=O)Oc1cccc(CN2CCC(COC(=O)c3cc(Cl)c(N)cc3OC)CC2)c1` [Compound 8, [1-[[3-[Ethyl(methyl)carbamoyl]oxyphenyl]methyl]-4-piperidyl]methyl 4-amino-5-chloro-2-methoxybenzoate] the inhibition at 0.01 µM (human 5-HT4R [3]; 10^−8 M) was 23%, the 5-HT4R affinity (human 5-HT4R [3]) was “devoid of any activity towards 5-HT4R” and the IC50 (AChE [2]; [7]) was 16300 nM.
In the case of `CCN(C)C(=O)Oc1cccc(CN2CCC(CNC(=O)c3cc(Cl)c(N)cc3OC)CC2)c1` [Compound 9, [3-[[4-[[(4-Amino-5-chloro-2-methoxybenzoyl)amino]methyl]-1-piperidyl]methyl]phenyl] N-ethyl-N-methyl-carbamate], the inhibition at 0.01 µM (human 5-HT4R [3]; 10^−8 M) is reported as 13%, the 5-HT4R affinity (human 5-HT4R [3]) is reported as “devoid of any activity towards 5-HT4R” and the IC50 (AChE [2]; [7]) is reported as 10100 nM.
For `COc1cc(N)c(Cl)cc1C(=O)CCC1CCN(Cc2cccc(O)c2)CC1.O=C(O)/C=C/C(=O)O` [Compound 19, 1-(4-Amino-5-chloro-2-methoxyphenyl)-3-[1-[(3-hydroxyphenyl)methyl]-4-piperidyl]propan-1-one fumaric acid salt], the “% Control Agonist Response” value ((h)5-HT4(a) receptors; 5-HT as control 5-HT4R agonist, mean ± SEM) was 59.0 ± 3.9%, the Profile ((h)5-HT4(a) receptors; (h)5-HT4(a) pharmacological profile) was “partial 5-HT4R agonist” and the EC50 ((h)5-HT4(a) receptors; given as Log(EC50), negative values, mean ± SEM) was 0.126 nM. The “mechanism of AChE inhibition” value (AChE [4]) was “non-competitive AChE inhibitor; also recorded: non-competitive-type”, the Ki (human 5-HT4R [1]) was 6.9 ± 1.2 nM and the IC50 (AChE [2]; [7]) was 72 ± 1.4 nM.
For `CCN(C)C(=O)Oc1cccc([C@H](C)N(C)C)c1` [Rivastigmine], the “effect on scopolamine-induced memory performance deficit” value (rodents [5]) is listed as “counterbalance scopolamine-induced memory performance deficit” and the “effect on memory deficits induced by MK 801” value (rodents [6]) is listed as “ineffective in improving memory deficits induced by MK 801”.
